Several values for one entry are separate records, joined by “and”; a condition that tells them apart may be missing. Equal entries are not always repeated. Where two headings read alike, the source gives them in different places.
Columns and labels:
[1] = biological target: T1, Oryza sativa P5C synthetase 2 (Oryza sativa subsp. japonica, UniProt O04226); assay: NADPH oxidation assay (full forward, physiological reaction of P5C synthetase); conditions: for concentrations found inhibitory (exceeding): level above which activity is reduced; for effect on P5CS2 activity (in words): increasing concentrations, range tested; for Vmax / Km: named substrate varied, Lineweaver-Burk plot; for Vmax: others fixed at 20mM glutamate, 30°C, pH 7.5; for Km: read-out: KM(app), others saturating (20mM glutamate, 4mM ATP, 0.4mM NADPH), ATP value from concentrations ≤4mM
T1 sequence (O04226 1-716): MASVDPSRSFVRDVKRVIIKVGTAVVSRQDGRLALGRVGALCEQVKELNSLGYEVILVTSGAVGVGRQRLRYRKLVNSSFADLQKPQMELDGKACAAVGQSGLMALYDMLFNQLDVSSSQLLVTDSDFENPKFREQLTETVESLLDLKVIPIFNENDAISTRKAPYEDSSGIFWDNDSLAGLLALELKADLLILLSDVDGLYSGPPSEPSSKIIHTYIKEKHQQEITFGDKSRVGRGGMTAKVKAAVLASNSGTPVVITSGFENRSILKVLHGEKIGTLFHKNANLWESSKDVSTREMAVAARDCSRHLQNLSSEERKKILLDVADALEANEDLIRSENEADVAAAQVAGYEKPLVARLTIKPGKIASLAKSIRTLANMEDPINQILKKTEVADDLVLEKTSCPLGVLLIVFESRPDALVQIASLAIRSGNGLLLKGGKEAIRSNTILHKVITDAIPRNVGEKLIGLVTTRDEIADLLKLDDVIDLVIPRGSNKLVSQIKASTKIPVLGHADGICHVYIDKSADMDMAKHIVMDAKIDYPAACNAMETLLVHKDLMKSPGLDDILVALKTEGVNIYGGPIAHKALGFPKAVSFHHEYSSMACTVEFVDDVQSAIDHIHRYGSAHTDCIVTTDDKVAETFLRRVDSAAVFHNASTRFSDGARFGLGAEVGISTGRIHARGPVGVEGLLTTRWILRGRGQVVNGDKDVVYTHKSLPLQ
Description: The physiological, forward reaction of P5C synthetase was measured by following the glutamate-dependent oxidation of NADPH in the presence of ATP. Aliquots of the purified enzyme preparations (0.5–1μg protein) were incubated in a final volume of 200μl with 20mML-glutamate, 4mM ATP, and 0.4mM NADPH in 50mM Tris-HCl buffer, pH 7.5. When aiming at the evaluation of the effect of chlorides on enzyme activity, Tris-HCl buffer concentration was lowered to 10mM, or replaced with 10mM potassium phosphate buffer, pH 7.5. Incubation proceeded at 30°C for up to 20min. The decrease of absorbance at 340nm was determined at 0.5min intervals against exact blanks in which glutamate had been omitted. Assays were either performed in cuvettes with 0.2 or 1cm pathlength (UVette; Eppendorf, Milan, Italy), or in 96-microwell plates. In the former case, OD340 was determined with a Novaspec plus spectrophotometer (Amersham Biosciences, Milan, Italy) equipped with an UVette adaptor. In the latter case, the plate was equilibrated at 30°C prior to enzyme addition, and absorbance was measured using a Ledetect plate reader (Labexim, Lengau, Austria) equipped with a LED plugin at 340nm. Each sample was carried out in triplicate (technical replications). Each determination was repeated with at least three different enzyme preparations (biological replications). Presented data refer to a single enzyme preparation, and are means±SE over technical replicates. Linear and non-linear regressions of data, as well as kinetic constant values, were computed using Prism 6 for Windows, version 6.03 (GraphPad Software, San Diego, CA, United States).

[2] = system: P5CS from V. aconitifolia; conditions: cited from earlier work; for Km: glutamyl kinase assay, ref Zhang et al., 1995
P5CS from A. thaliana = system: P5CS from A. thaliana; set-up: method as in Parre et al., 2010; conditions: half-reaction; ref Parre et al., 2010; cited from earlier work
[3] = substrate: N[C@@H](CCC(=O)O)C(=O)O; assay: purified protein, by the assay type; conditions: other: named substrate varied, others saturating (20mM glutamate, 4mM ATP, 0.4mM NADPH); Lineweaver-Burk plot; ATP value from concentrations ≤4mM; pH 7.5; 30.0 °C
Description: The physiological, forward reaction of P5C synthetase was measured by following the glutamate-dependent oxidation of NADPH in the presence of ATP. […] When aiming at the evaluation of the effect of chlorides on enzyme activity, Tris-HCl buffer concentration was lowered to 10mM, or replaced with 10mM potassium phosphate buffer, pH 7.5. Incubation proceeded at 30°C for up to 20min. The decrease of absorbance at 340nm was determined at 0.5min intervals against exact blanks in which glutamate had been omitted. Assays were either performed in cuvettes with 0.2 or 1cm pathlength (UVette; Eppendorf, Milan, Italy), or in 96-microwell plates. In the former case, OD340 was determined with a Novaspec plus spectrophotometer (Amersham Biosciences, Milan, Italy) equipped with an UVette adaptor. In the latter case, the plate was equilibrated at 30°C prior to enzyme addition, and absorbance was measured using a Ledetect plate reader (Labexim, Lengau, Austria) equipped with a LED plugin at 340nm. Each sample was carried out in triplicate (technical replications). Each determination was repeated with at least three different enzyme preparations (biological replications). […] Linear and non-linear regressions of data, as well as kinetic constant values, were computed using Prism 6 for Windows, version 6.03 (GraphPad Software, San Diego, CA, United States).

[4] = IC50 (concentration inhibiting activity by 50%), 20mM glutamate, 4mM ATP, 0.4mM NADPH, 50mM Tris-HCl pH 7.5, 30°C, non-linear regression
[5] = IC50 (concentration inhibiting activity by 50%)
[6] = read-out: IC50 (concentration inhibiting activity by 50%), cations, added as chlorides, 10mM potassium phosphate buffer pH 7.5, Mg++ data relative to equimolar NaCl
[7] = read-out: IC50 (concentration inhibiting activity by 50%), 20mM glutamate, 4mM ATP, 0.4mM NADPH, 50mM Tris-HCl pH 7.5, 30°C, non-linear regression

Molecule: O=P(O)(O)O [HPO4^−−]
- concentrations found inhibitory (exceeding) [1]: higher than 20 mM

Molecule: O=C(O)[C@@H]1CCCCN1 [Pipecolate, pipecolic acid]
- effect on P5CS2 activity (in words) [1]: completely ineffective

Molecule: O=C(O)C1CCC=N1 (stereo not drawn) [P5C, δ^1-pyrroline-5-carboxylate]
- effect on P5CS2 activity (in words) [1]: did not exert any significant effect

Molecule: NC(=O)CC[C@H](N)C(=O)O [glutamine]
- IC50 [1]: 89.7 mM
- concentrations found inhibitory (exceeding) [1]: exceeding 10 mM

Molecule: O=C(O)C1CCN1 (stereo not drawn) [azetidine-2-carboxylic acid]
- IC50 [1, 4]: 11 mM
- IC50 relative to proline (fold higher) ([1]; versus IC50 of L-proline): 3.8 fold

Molecule: NC(=O)C[C@H](N)C(=O)O [Asparagine]
- effect on P5CS2 activity up to 100mM (in words) [1]: ineffective

Molecule: O=C(O)[C@H]1CCCN1 [D-proline]
- effect on P5CS2 activity up to 100mM (in words) [1]: unable to interfere

Molecule: N=C(N)NCCC[C@H](N)C(=O)O [arginine]
- IC50 [1]: 63.9 mM

Molecule: Nc1ncnc2c1ncn2[C@@H]1O[C@H](COP(=O)(O)OP(=O)(O)OP(=O)(O)O)[C@@H](O)[C@H]1O [ATP]
- concentrations found inhibitory (exceeding) [1]: exceeding 4 mM
- Vmax ([1]; 4mM ATP, 0.4mM NADPH): 17.96±0.46 nkat (mg protein)^−1
- Ki ([1]; read-out: KI value for ATP (substrate inhibition), fit to substrate inhibition model, 20mM glutamate, 0.4mM NADPH): 11.6 ± 5.1 mM
- Km [1]: 760 µM and 764 µM
- Km [2]: 2700 µM
- Km (P5CS from A. thaliana): 1500 µM

Molecule: [Na+] [sodium cations]
- concentrations found inhibitory (exceeding) [1]: exceeding 100 mM

Molecule: O=P(O)(O)O [inorganic phosphate]
- effect on P5CS2 activity (in words) [1]: did not exert any significant effect

Molecule: NCCC[C@H](N)C(=O)O [ornithine]
- IC50 [1, 5]: 52.6 mM
- concentrations found inhibitory (exceeding) [1]: exceeding 2 mM

Molecule: N[C@@H](CCC(=O)O)C(=O)O [L-Glu, L-glutamate]
- Vmax ([1]; 4mM ATP, 0.4mM NADPH): 17.38±0.52 nkat (mg protein)^−1
- Km [2]: 3600 µM

Molecule: NC(=O)c1ccc[n+]([C@@H]2O[C@H](COP(=O)([O-])OP(=O)(O)OC[C@H]3O[C@@H](n4cnc5c(N)ncnc54)[C@H](O)[C@@H]3O)[C@@H](O)[C@H]2O)c1 [NAD^+]
- effect on P5CS2 activity (in words) [1]: completely ineffective

Molecule: [Ca+2] [Ca^++]
- effect on P5CS2 activity (in words) [1]: strong inhibitory effect
- IC50 [1, 6]: 4.09 mM

Molecule: O=P(O)(O)C1CCCN1 (stereo not drawn) [phosphonoproline]
- IC50 [1, 4]: 42.2 mM
- effect on P5CS2 activity (in words) [1]: partial inhibition

Molecule: Nc1ncnc2c1ncn2[C@@H]1O[C@H](COP(=O)(O)OP(=O)(O)O)[C@@H](O)[C@H]1O [ADP]
- concentrations found inhibitory (exceeding) [1]: > 4 mM
- IC50 [1, 7]: 9 mM and 9.06 mM

Molecule: O=C(O)[C@@H]1CC(O)CN1 (stereo partly drawn) [L-4-hydroxyproline]
- IC50 [1, 4]: 89.5 mM
- effect on P5CS2 activity (in words) [1]: partial inhibition

Molecule: NC(=O)C1=CN([C@@H]2O[C@H](COP(=O)(O)OP(=O)(O)OC[C@H]3O[C@@H](n4cnc5c(N)ncnc54)[C@H](O)[C@@H]3O)[C@@H](O)[C@H]2O)C=CC1 [NADH]
- utilization as electron donor instead of NADPH ([1]; highest concentration tested 0.5mM): No detectable utilization

Molecule: [Mg+2] [Mg^++]
- inhibition of activity ([1]; Mg++ ions at 20mM): 25%
- effect on P5CS2 activity (in words) [1]: strong inhibitory effect
- IC50 [1, 6]: 34.8 mM

Molecule: NC(=O)C1=CN([C@@H]2O[C@H](COP(=O)(O)OP(=O)(O)OC[C@H]3O[C@@H](n4cnc5c(N)ncnc54)[C@H](OP(=O)(O)O)[C@@H]3O)[C@@H](O)[C@H]2O)C=CC1 [NADPH]
- Vmax ([1]; 4mM ATP, 0.4mM NADPH): 18.36±0.64 nkat (mg protein)^−1
- Km [1]: 45 ± 4 µM

Molecule: O=C(O)[C@@H]1CCCN1 [L-proline]
- catalytic rate retained ([1]; 10mM proline): less than 20%
- IC50 [1, 5]: 2.91 mM
- IC50 ([2]; ref Hu et al., 1992, read-out: concentration giving 50%-inhibition): 6 mM

Molecule: Cl [chloride anions]
- stimulation of P5CS2 activity ([1]; chlorides in the 10–100mM range): up to 40%
- concentration range with stimulatory effect ([1]; chlorides of various cations): 10 to 100 mM

Molecule: O=C(O)CCC(=O)C(=O)O [α-ketoglutarate]
- effect on P5CS2 activity up to 100mM (in words) [1]: ineffective

Molecule: NC(=O)c1ccc[n+]([C@@H]2O[C@H](COP(=O)([O-])OP(=O)(O)OC[C@H]3O[C@@H](n4cnc5c(N)ncnc54)[C@H](OP(=O)(O)O)[C@@H]3O)[C@@H](O)[C@H]2O)c1 [NADP^+]
- IC50 [1, 7]: 0.4 mM and 0.389 mM

B1: Oryza sativa P5C synthetase 2 (Oryza sativa Japonica Group) (protein)
chain: T1 sequence (O04226 1-716)
- Km [3]: 2690 ± 190 µM

Reference: PMC8480329, “Enzymology and Regulation of δ^1-Pyrroline-5-Carboxylate Synthetase 2 From Rice” (Frontiers in Plant Science, 2021)
